# Measurements taken from US10150760B2, “Compounds for use in preparing heterocyclic triazole agonists of the APJ receptor” (AMGEN INC., priority 2016, dated 2018).
# Molecular target: human APJ receptor (Homo sapiens (Human), UniProt P35414)
# Experiment: [35S]GTPγS binding assay on membranes from CHO cells stably expressing human APJ receptor
# Type: biochemical
# Details: read-out: Activity hAPJ SPA EC50 IP
# Method in brief: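 Membranes from CHO cells stably expressing human APJ incubated with ligand, 0.2 nM [35S]GTPγS and WGA SPA beads in HEPES pH 7.5 with 5 mM MgCl2, 200 mM NaCl, 3 μM GDP, 90 min at RT. Nonspecific binding defined with 100 μM GTPγS; EC50 by non-linear regression.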
# Sequence of human APJ receptor (P35414 whole entry): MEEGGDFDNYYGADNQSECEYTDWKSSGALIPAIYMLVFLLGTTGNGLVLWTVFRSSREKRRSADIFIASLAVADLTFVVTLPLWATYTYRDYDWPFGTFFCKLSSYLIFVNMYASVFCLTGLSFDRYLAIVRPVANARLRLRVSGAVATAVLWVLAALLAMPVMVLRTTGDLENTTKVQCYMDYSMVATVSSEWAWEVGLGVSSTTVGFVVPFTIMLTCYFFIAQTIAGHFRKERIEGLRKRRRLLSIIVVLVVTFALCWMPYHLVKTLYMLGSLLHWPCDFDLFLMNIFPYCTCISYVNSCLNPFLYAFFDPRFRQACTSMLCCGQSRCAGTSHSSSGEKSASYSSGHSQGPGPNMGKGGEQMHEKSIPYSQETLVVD
row,Structure (SMILES),EC50 [nM]
1,"COc1ncnc(OC)c1-n1c(NS(=O)(=O)[C@@H](C)[C@@H](OC(C)C)c2ncc(C)cn2)nnc1[C@H]1CCCO1 (single isomer, unassigned) [Example 95.0, (1S,2S)-N-(4-(4,6-dimethoxypyrimidm-5-yl)-5-((S)-tetrahydrofuran-2-yl)-4H-1,2,4-triazol-3-yl)-1-isopropoxy-1-(5-methylpyrimidin-2-yl)propane-2-sulfonamide or (1S,2S)-N-(4-(4,6-dimethoxypyrimidin-5-yl)-5-((R)-tetrahydrofuran-2-yl)-4H-1,2,4-triazol-3-yl)-1-isopropoxy-1-(5-methylpyrimidin-2-yl)propane-2-sulfonamide]",15
2,"COc1ncnc(OC)c1-n1c(NS(=O)(=O)[C@@H](C)[C@@H](OC(C)C)c2ncc(C)cn2)nnc1[C@H]1CCCO1 (single isomer, unassigned) [Example 96.0, (1S,2S)-N-(4-(4,6-dimethoxypyrimidm-5-yl)-5-((S)-tetrahydrofuran-2-yl)-4H-1,2,4-triazol-3-yl)-1-isopropoxy-1-(5-methylpyrimidin-2-yl)propane-2-sulfonamide or (1S,2S)-N-(4-(4,6-dimethoxypyrimidin-5-yl)-5-((R)-tetrahydrofuran-2-yl)-4H-1,2,4-triazol-3-yl)-1-isopropoxy-1-(5-methylpyrimidin-2-yl)propane-2-sulfonamide]",190
3,"COc1cccc(OC)c1-n1c(NS(=O)(=O)[C@@H](C)[C@@H](OC(C)C)c2ncc(C)cn2)nnc1[C@H]1CCCO1 (single isomer, unassigned) [Example 98.0, (1S,2S)-N-(4-(2,6-dimethoxyphenyl)-5-((S)-tetrahydrofuran-2-yl)-4H-1,2,4-triazol-3-yl)-1-isopropoxy-1-(5-methylpyrimidin-2-yl)propane-2-sulfonamide or (1S,2S)-N-(4-(2,6-dimethoxyphenyl)-5-((R)-tetrahydrofuran-2-yl)-4H-1,2,4-triazol-3-yl)-1-isopropoxy-1-(5-methylpyrimidin-2-yl)propane-2-sulfonamide]",0.78
4,"COc1cccc(OC)c1-n1c(NS(=O)(=O)[C@@H](C)[C@@H](OC(C)C)c2ncc(C)cn2)nnc1[C@H]1CCOC1 (single isomer, unassigned) [Example 99.0, (1S,2S)-N-(4-(2,6-dimethoxyphenyl)-5-((R)-tetrahydrofuran-3-yl)-4H-1,2,4-triazol-3-yl)-1-isopropoxy-1-(5-methylpyrimidin-2-yl)propane-2-sulfonamide or (1S,2S)-N-(4-(2,6-dimethoxyphenyl)-5-((S)-tetrahydrofuran-3-yl)-4H-1,2,4-triazol-3-yl)-1-isopropoxy-1-(5-methylpyrimidin-2-yl)propane-2-sulfonamide]",2.5
5,"COc1cccc(OC)c1-n1c(NS(=O)(=O)[C@@H](C)[C@@H](OC(C)C)c2ncc(C)cn2)nnc1[C@H]1CCOC1 (single isomer, unassigned) [Example 100.0, (1S,2S)-N-(4-(2,6-dimethoxyphenyl)-5-((R)-tetrahydrofuran-3-yl)-4H-1,2,4-triazol-3-yl)-1-isopropoxy-1-(5-methylpyrimidin-2-yl)propane-2-sulfonamide or (1S,2S)-N-(4-(2,6-dimethoxyphenyl)-5-((S)-tetrahydrofuran-3-yl)-4H-1,2,4-triazol-3-yl)-1-isopropoxy-1-(5-methylpyrimidin-2-yl)propane-2-sulfonamide]",24
6,"COc1ncnc(OC)c1-n1c(NS(=O)(=O)[C@@H](C)[C@H](C)c2ncc(Cl)cn2)nnc1[C@H]1CCCOC1 (single isomer, unassigned) [Example 101.0, (2S,3R)-3-(5-chloropyrimidin-2-yl)-N-(4-(4,6-dimethoxypyrimidin-5-yl)-5-((S)-tetrahydro-2H-pyran-3-yl)-4H-1,2,4-triazol-3-yl)butane-2-sulfonamide or (2S,3R)-3-(5-chloropyrimidin-2-yl)-N-(4-(4,6-dimethoxypyrimidin-5-yl)-5-((R)-tetrahydro-2H-pyran-3-yl)-4H-1,2,4-triazol-3-yl)butane-2-sulfonamide]",260
7,"COc1ncnc(OC)c1-n1c(NS(=O)(=O)[C@@H](C)[C@H](C)c2cnc(C)cn2)nnc1[C@H]1CCCO1 (single isomer, unassigned) [Example 104.0, (2S,3R)-N-(4-(4,6-dimethoxypyrimidin-5-yl)-5-((S)-tetrahydrofuran-2-yl)-4H-1,2,4-triazol-3-yl)-3-(5-methylpyrazin-2-yl)butane-2-sulfonamide or (2S,3R)-N-(4-(4,6-dimethoxypyrimidin-5-yl)-5-((R)-tetrahydrofuran-2-yl)-4H-1,2,4-triazol-3-yl)-3-(5-methylpyrazin-2-yl)butane-2-sulfonamide]",330
8,"COc1ncnc(OC)c1-n1c(NS(=O)(=O)[C@@H](C)[C@H](C)c2cnc(C)cn2)nnc1[C@H]1CCCO1 (single isomer, unassigned) [Example 105.0, (2S,3R)-N-(4-(4,6-dimethoxypyrimidin-5-yl)-5-((S)-tetrahydrofuran-2-yl)-4H-1,2,4-triazol-3-yl)-3-(5-methylpyrazin-2-yl)butane-2-sulfonamide or (2S,3R)-N-(4-(4,6-dimethoxypyrimidin-5-yl)-5-((R)-tetrahydrofuran-2-yl)-4H-1,2,4-triazol-3-yl)-3-(5-methylpyrazin-2-yl)butane-2-sulfonamide]",88
9,"COc1cccc(OC)c1-n1c(NS(=O)(=O)[C@@H](C)[C@H](C)c2cnc(C)cn2)nnc1[C@H]1CCCCO1 (single isomer, unassigned) [Example 106.0, (2S,3R)-N-(4-(2,6-dimethoxyphenyl)-5-((S)-tetrahydro-2H-pyran-2-yl)-4H-1,2,4-triazol-3-yl)-3-(5-methylpyrazin-2-yl)butane-2-sulfonamide or (2S,3R)-N-(4-(2,6-dimethoxyphenyl)-5-((R)-tetrahydro-2H-pyran-2-yl)-4H-1,2,4-triazol-3-yl)-3-(5-methylpyrazin-2-yl)butane-2-sulfonamide]",53
10,"COc1cccc(OC)c1-n1c(NS(=O)(=O)[C@@H](C)[C@H](C)c2cnc(C)cn2)nnc1[C@H]1CCCCO1 (single isomer, unassigned) [Example 107.0, (2S,3R)-N-(4-(2,6-dimethoxyphenyl)-5-((S)-tetrahydro-2H-pyran-2-yl)-4H-1,2,4-triazol-3-yl)-3-(5-methylpyrazin-2-yl)butane-2-sulfonamide or (2S,3R)-N-(4-(2,6-dimethoxyphenyl)-5-((R)-tetrahydro-2H-pyran-2-yl)-4H-1,2,4-triazol-3-yl)-3-(5-methylpyrazin-2-yl)butane-2-sulfonamide]",5.1
11,"COc1cccc(OC)c1-n1c(NS(=O)(=O)[C@@H](C)[C@H](OC)c2ncc(Cl)cn2)nnc1[C@H]1CCC(C)(C)O1 (single isomer, unassigned) [Example 108.0, (1R,2S)-1-(5-chloropyrimidin-2-yl)-N-(4-(2,6-dimethoxyphenyl)-5-((S)-5,5-dimethyltetrahydrofuran-2-yl)-4H-1,2,4-triazol-3-yl)-1-methoxypropane-2-sulfonamide or (1R,2S)-1-(5-chloropyrimidin-2-yl)-N-(4-(2,6-dimethoxyphenyl)-5-((R)-5,5-dimethyltetrahydrofuran-2-yl)-4H-1,2,4-triazol-3-yl)-1-methoxypropane-2-sulfonamide]",25
12,"COc1cccc(OC)c1-n1c(NS(=O)(=O)[C@@H](C)[C@H](OC)c2ncc(Cl)cn2)nnc1[C@H]1CCC(C)(C)O1 (single isomer, unassigned) [Example 109.0, (1R,2S)-1-(5-chloropyrimidin-2-yl)-N-(4-(2,6-dimethoxyphenyl)-5-((S)-5,5-dimethyltetrahydrofuran-2-yl)-4H-1,2,4-triazol-3-yl)-1-methoxypropane-2-sulfonamide or (1R,2S)-1-(5-chloropyrimidin-2-yl)-N-(4-(2,6-dimethoxyphenyl)-5-((R)-5,5-dimethyltetrahydrofuran-2-yl)-4H-1,2,4-triazol-3-yl)-1-methoxypropane-2-sulfonamide]",0.16
13,"CO[C@H](c1ncc(Cl)cn1)[C@H](C)S(=O)(=O)Nc1nnc([C@H]2CCCO2)n1C1(C)CC1 (single isomer, unassigned) [Example 110.0, (1R,2S)-1-(5-chloropyrimidin-2-yl)-1-methoxy-N-(4-(1-methylcyclopropyl)-5-((S)-tetrahydrofuran-2-yl)-4H-1,2,4-triazol-3-yl)propane-2-sulfonamide or (1R,2S)-1-(5-chloropyrimidin-2-yl)-1-methoxy-N-(4-(1-methylcyclopropyl)-5-((R)-tetrahydrofuran-2-yl)-4H-1,2,4-triazol-3-yl)propane-2-sulfonamide]",30
14,"CO[C@H](c1ncc(Cl)cn1)[C@H](C)S(=O)(=O)Nc1nnc([C@H]2CCCO2)n1C1(C)CC1 (single isomer, unassigned) [Example 111.0, (1R,2S)-1-(5-chloropyrimidin-2-yl)-1-methoxy-N-(4-(1-methylcyclopropyl)-5-((S)-tetrahydrofuran-2-yl)-4H-1,2,4-triazol-3-yl)propane-2-sulfonamide or (1R,2S)-1-(5-chloropyrimidin-2-yl)-1-methoxy-N-(4-(1-methylcyclopropyl)-5-((R)-tetrahydrofuran-2-yl)-4H-1,2,4-triazol-3-yl)propane-2-sulfonamide]",240
15,"CO[C@H](c1ncc(Cl)cn1)[C@H](C)S(=O)(=O)Nc1nnc([C@H]2CCCCO2)n1C1(C)CC1 (single isomer, unassigned) [Example 113.0, (1R,2S)-1-(5-chloropyrimidin-2-yl)-1-methoxy-N-(4-(1-methylcyclopropyl)-5-((S)-tetrahydro-2H-pyran-2-yl)-4H-1,2,4-triazol-3-yl)propane-2-sulfonamide or (1R,2S)-1-(5-chloropyrimidin-2-yl)-1-methoxy-N-(4-(1-methylcyclopropyl)-5-((R)-tetrahydro-2H-pyran-2-yl)-4H-1,2,4-triazol-3-yl)propane-2-sulfonamide]",260
